Molecular target: T1, sGC α1/β1 heterodimer stably expressed in CHO-K1 cells (CHO-K1/sGC) (Homo sapiens, UniProt Q02108+Q02153)
T1 construct: expressed in transfected cells
T1 sequence (Q02108 1-690): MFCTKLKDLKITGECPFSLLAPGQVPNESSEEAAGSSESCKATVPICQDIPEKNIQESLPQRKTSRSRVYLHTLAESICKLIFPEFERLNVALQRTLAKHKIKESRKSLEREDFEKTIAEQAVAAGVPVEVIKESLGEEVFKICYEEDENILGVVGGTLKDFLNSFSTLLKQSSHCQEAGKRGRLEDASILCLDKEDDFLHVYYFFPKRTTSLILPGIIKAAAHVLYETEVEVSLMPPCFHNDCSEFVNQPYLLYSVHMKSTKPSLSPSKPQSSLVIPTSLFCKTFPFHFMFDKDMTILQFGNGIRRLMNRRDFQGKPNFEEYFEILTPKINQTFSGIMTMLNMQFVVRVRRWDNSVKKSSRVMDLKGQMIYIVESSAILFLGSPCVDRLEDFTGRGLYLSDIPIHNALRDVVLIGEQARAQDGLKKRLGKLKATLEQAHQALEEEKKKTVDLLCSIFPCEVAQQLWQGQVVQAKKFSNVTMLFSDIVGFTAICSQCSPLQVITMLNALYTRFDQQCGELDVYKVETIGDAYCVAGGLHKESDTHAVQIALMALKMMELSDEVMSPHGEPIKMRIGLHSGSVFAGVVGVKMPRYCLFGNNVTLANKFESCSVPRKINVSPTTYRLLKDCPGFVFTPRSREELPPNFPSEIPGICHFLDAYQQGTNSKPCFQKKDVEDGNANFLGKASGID
T1 sequence (Q02153 1-619): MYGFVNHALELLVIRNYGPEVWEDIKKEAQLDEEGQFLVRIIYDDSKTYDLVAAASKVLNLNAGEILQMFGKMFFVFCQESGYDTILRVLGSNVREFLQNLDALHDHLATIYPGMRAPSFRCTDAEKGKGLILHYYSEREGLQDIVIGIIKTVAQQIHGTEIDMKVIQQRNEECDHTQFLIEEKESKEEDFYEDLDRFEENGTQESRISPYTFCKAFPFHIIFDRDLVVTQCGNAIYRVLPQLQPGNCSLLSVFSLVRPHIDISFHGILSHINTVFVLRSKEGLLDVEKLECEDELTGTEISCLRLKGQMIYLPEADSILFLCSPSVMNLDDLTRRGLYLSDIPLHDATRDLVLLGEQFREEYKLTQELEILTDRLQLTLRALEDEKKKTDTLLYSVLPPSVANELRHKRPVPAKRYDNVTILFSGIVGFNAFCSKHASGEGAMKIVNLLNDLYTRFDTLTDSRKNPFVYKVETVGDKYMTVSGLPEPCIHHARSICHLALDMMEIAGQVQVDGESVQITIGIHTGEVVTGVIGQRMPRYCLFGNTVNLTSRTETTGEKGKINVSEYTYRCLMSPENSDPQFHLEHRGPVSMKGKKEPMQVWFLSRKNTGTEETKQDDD
Test: Cell-based sGC functional assay (CASA assay), cGMP generation by HTRF
Conditions: for Emax: CHO-K1, maximum cGMP production of Compound A set to 100% activation, read-out: % Act. (percent activation relative to Compound A); for EC50: CHO-K1/sGC cells, 1 hr at 37° C., 4P fit, presence or absence of DETA-NO not given, read-out: IP (nM) (inflection point); for % Act. (percent activation relative to Compound A): maximum cGMP production of Compound A set to 100% activation
From the text: Biological Assay 1: Cell-Based sGC Functional Assay (CASA Assay) Rationale
sGC is a heme-containing enzyme that converts GTP to secondary messenger cGMP. Increases in cGMP levels affect several physiological processes including vasorelaxation through multiple downstream pathways. […] Heme-dependent activators (HDAs) preferentially activate sGC containing a ferrous heme group. To determine the effect of sGC activators on enzyme activity, the CASA assay was developed to monitor the generation of cGMP in a cell line that stably expresses the heterodimeric sGC protein.
A CHO-K1 cell line stably expressing the sGC α1/β1 heterodimer was generated using a standard transfection protocol. CHO-K1 cells were transfected with plasmids pIREShyghsGCα1 and pIRESneo-hsGCβ1 simultaneously using FUGENE reagent. Clones that stably express both subunits were selected with hygromycin and neomycin for ˜2 weeks. Clone #7 was chosen for the assay and was designated CHO-K1/sGC. CHO-K1/sGC cells were maintained in F-K12 medium containing 10% heat-inactivated Fetal Bovine Serum (FBS), 100 μg/mL penicillin/streptomycin, 0.5 mg/mL hygromycin and 0.25 mg/mL G418. The cells were then cryopreserved in LN2. On the day of the assay, cells were thawed and resuspended in EBSS Assay Buffer (Sigma, E3024) supplemented with 5 mM MgCl2, 10 mM HEPES (4-(2-hydroxyethyl)piperazine-1-ethanesulfonic acid) and 0.05% BSA (bovine serum albumin) (EAB) and cell density was then adjusted to 4×10^5/mL with EAB. IBMX (3-isobutyl-1-methylxanthin, 0.5 mM) was added to inhibit degradation of cGMP. Compounds were diluted from DMSO stock solutions and added to the assay at a final DMSO concentration of 2.5%. Cells were incubated with compounds in the presence and absence of 1 μM of Diethylenetriamine/nitric oxide adduct (DETA-NO; Sigma, 17018) for 1 hr at 37° C. At the end of the incubation period, the reaction was terminated and the cells were lysed with the detection reagents from Cisbio Kits. The level of intracellular cGMP was determined using an HTRF-based assay kit (CisBio, 62GM2PEC), which detects the displacement of a fluorescence labeled cGMP from its specific antibody. The cGMP produced by test compounds was directly compared to the maximum cGMP production (this value was set to equal 100% activation.) of the published sGC-HDA Compound A:
[drawing 101] (Example 1 in WO 2010/065275, published Jun. 10, 2010). The test compounds' activities were then expressed as a percentage of Compound A, the standard in every experiment. This percent activation was calculated either in the presence or absence of DETA-NO which was then plotted. IP and maximum fold induction was derived using ADA analysis software for 4P fit.
The compounds in the Examples of the instant invention had inflection points (IP) less than or equal to 10 μM and many had IPs less than or equal to about 1 μM.

| SMILES | Emax [%] | EC50 [nM] | % Act. (percent activation relative to Compound A) [%] |
| --- | --- | --- | --- |
| CC1(c2ccc(F)cc2)C(=O)Nc2nc(-c3cn4ccnc4c(Oc4cc(F)cc(F)c4F)n3)nc(N)c21 (stereo not drawn) [Example 17A, 4-amino-5-(4-fluorophenyl)-5-methyl-2-[8-(2,3,5-trifluorophenoxy)imidazo[1,2-a]pyrazin-6-yl]-5,7-dihydro-6H-pyrrolo [2,3-d]pyrimidin-6-one] | 100 | 17 | – |
| CC1(c2ccc(F)cc2)C(=O)Nc2nc(-c3cn4ccnc4c(OCC4CCCC4)n3)nc(N)c21 (stereo not drawn) [Example 45A, 4-amino-2-[8-(cyclopentyl-methoxy)imidazo [1,2-a]pyrazin-6-yl]-5-(4-fluoro-phenyl)-5-methyl-5,7-dihydro-6H-pyrrolo[2,3-d] pyrimidin-6-one] | 110 | 13 | – |
| CC1(c2ccc(F)cc2)C(=O)Nc2nc(-c3cn4ccnc4c(Oc4cc(F)ccc4F)n3)nc(N)c21 (stereo not drawn) [Example 25A, 4-amino-2-[8-(2,5-difluorophenoxy)imidazo[1,2-a]pyrazin-6-yl]-5-(4-fluorophenyl)-5-methyl-5,7-dihydro-6H-pyrrolo[2,3-d] pyrimidin-6-one] | 97 | 32 | – |
| CC1(c2ccc(F)cc2)C(=O)Nc2nc(-c3cn4ccnc4c(OCCC4CC4)n3)nc(N)c21 (stereo not drawn) [Example 44A, 4-amino-2-[8-(2-cyclopropyl-ethoxy)imidazo [1,2-a]pyrazin-6-yl]-5-(4-fluorophenyl)-5-methyl-5,7-dihydro-6H-pyrrolo[2,3-d] pyrimidin-6-one] | 100 | 60 | – |
| CC1(c2ccc(Cl)cc2)C(=O)Nc2nc(-c3cn4ccnc4c(NCC4CC4(C)C)n3)nc(N)c21 (stereo not drawn) [Example 56A, 4-amino-5-(4-chlorophenyl)-2-(8-{[(2,2-dimethylcyclo-propyl)methyl]amino}imidazo [1,2-a]pyrazin-6-yl)-5-methyl-5,7-dihydro-6H-pyrrolo [2,3-d]pyrimidin-6-one] | 110 | 51 | – |
| CC1(c2ccc(Cl)cc2)C(=O)Nc2nc(-c3cn4ccnc4c(OCC4CCCCO4)n3)nc(N)c21 (single isomer, unassigned; slow eluting) [Example 68B, 4-amino-5-(4-chlorophenyl)-5-methyl-2-[8-(tetrahydro-2H-pyran-2-ylmethoxy)imidazo[1,2-a]pyrazin-6-yl]-5,7-dihydro-6H-pyrrolo [2,3-d] pyrimidin-6-one (slow eluting)] | – | 633 | 85 |
| CC1(c2ccc(Cl)cc2)C(=O)Nc2nc(-c3cn4ccnc4c(NCC4CCCCO4)n3)nc(N)c21 (single isomer, unassigned; slow eluting) [Example 71B, 4-amino-5-(4-chlorophenyl)-5-methyl-2-{8-[(tetrahydro-2H-pyran-2-ylmethyl)amino]imidazo [1,2-a]pyrazin-6-yl}-5,7-dihydro-6H-pyrrolo[2,3-d] pyrimidin-6-one (slow eluting)] | – | 143 | 95 |
| CC1(c2ccc(F)cc2)C(=O)Nc2nc(-c3cn4ccnc4c(Oc4cc(F)cc(F)c4)n3)nc(N)c21 (stereo not drawn) [Example 23A, 4-amino-2-[8-(3,5-difluorophenoxy)imidazo[1,2-a]pyrazin-6-yl]-5-(4-fluorophenyl)-5-methyl-5,7-dihydro-6H-pyrrolo[2,3-d] pyrimidin-6-one] | 100 | 16 | – |
| CC1(c2ccc(F)cc2)C(=O)Nc2nc(-c3cn4cc(C(F)(F)F)nc4c(Oc4ccccc4)n3)nc(N)c21 (stereo not drawn) [Example 36A, 4-amino-5-(4-fluorophenyl)-5-methyl-2-(8-phenoxy-2-(trifluoromethyl)imidazo[1,2-a]pyrazin-6-yl)-5H-pyrrolo[2,3-d] pyrimidin-6(7H)-one] | 129 | 1470 | – |

More lines, in order of falling EC50, values ahead:

| Emax [%] | EC50 [nM] | % Act. (percent activation relative to Compound A) [%] | SMILES |
| --- | --- | --- | --- |
| 139 | 1160 | – | CC1(c2ccc(Cl)cc2)C(=O)Nc2nc(-c3cn4ccnc4c(OC4CCC(F)(F)CC4)n3)nc(N)c21 (stereo not drawn) [Example 28A, 4-amino-5-(4-chlorophenyl)-2-{8-[(4,4-difluorocyclohexyl)oxy]imidazo[1,2-a]pyrazin-6-yl}-5-methyl-5,7-dihydro-6H-pyrrolo[2,3-d] pyrimidin-6-one] |
| 112 | 1040 | – | CC1(c2ccc(F)cn2)C(=O)Nc2nc(-c3cn4ccnc4c(OCC4CC(F)(F)C4)n3)nc(N)c21 (stereo not drawn) [Example 33B, 4-amino-2-{8-[(3,3-difluoro-cyclobutyl)methoxy]imidazo [1,2-a]pyrazin-6-yl}-5-(5-fluoro-pyridin-2-yl)-5-methyl-5,7-dihydro-6H-pyrrolo[2,3-d] pyrimidin-6-one] |
| 94 | 468 | – | CC1(c2ccc(F)cc2)C(=O)Nc2nc(-c3cn4cc(C(F)(F)F)nc4c(Oc4cccc(F)c4)n3)nc(N)c21 (stereo not drawn) [Example 35A, 4-Amino-2-(8-(3-fluorophenoxy)-2-(trifluoromethyl)imidazo[1,2-a]pyrazin-6-yl)-5-(4-fluorophenyl)-5-methyl-5H-pyrrolo[2,3-d]pyrimidin-6(7H)-one] |
| 158 | 422 | – | CC1(c2ccc(F)cc2)C(=O)Nc2nc(-c3cn4ccnc4c(Oc4cccnc4)n3)nc(N)c21 (stereo not drawn) [Example 29A, 4-amino-5-(4-fluorophenyl)-5-methyl-2-[8-(pyridin-3-yloxy)imidazo[1,2-a]pyrazin-6-yl]-5,7-dihydro-6H-pyrrolo[2,3-d] pyrimidin-6-one] |
| 109 | 163 | – | CC1(c2ccc(Cl)cc2)C(=O)Nc2nc(-c3cn4ccnc4c(NCC4CC(F)(F)C4)n3)nc(N)c21 (stereo not drawn) [Example 58A, 4-amino-5-(4-chlorophenyl)-2-(8-{[(3,3-difluorocyclo-butyl)methyl]amino}imidazo [1,2-a]pyrazin-6-yl)-5-methyl-5,7-dihydro-6H-pyrrolo[2,3-d] pyrimidin-6-one] |
| 98 | 10 | – | CC1(c2ccc(F)cc2)C(=O)Nc2nc(-c3cn4ccnc4c(Oc4ccc(F)c(F)c4)n3)nc(N)c21 (stereo not drawn) [Example 18A, 4-amino-2-[8-(3,4-difluorophenoxy)imidazo[1,2-a]pyrazin-6-yl]-5-(4-fluorophenyl)-5-methyl-5,7-dihydro-6H-pyrrolo[2,3-d] pyrimidin-6-one] |

— patent US10245264B2, “Substituted imidazo[1,2-a]pyrazines as soluble guanylate cyclase activators” (Merck Sharp & Dohme Corp., priority 2015, dated 2019)
